Where two headings read alike, the source gives them in different places. Where a SMILES comes first, the peptide text is derived from it. Bridges are numbered along the chain shown (N, C = ends). Roman numbers before positions name the chains, in order.
Assays:
[1] = system: neuroblastoma SH-SY5Y cells; assay: MTT cell viability assay on SH-SY5Y cells; type: cell-based; details: for Experimental % inhibition Without verapamil At 50 μM: 72 h; for IC50: in presence of verapamil (10 μM), read-out: In vitro IC50
Protocol: The anticancer effects of captured hits were evaluated against SH-SY5Y (Neuroblastoma, CRL-2266), Panc-1 (pancreatic carcinoma, CRL-1469) and U-87 MG (glioblastoma, HTB-14) cells. Details about growth conditions, cell harvesting and counting are available in ESI Sections SM12–SM14. ^† The cancer killing profiles of tested compounds were evaluated colorimetrically using the Cell Titer Non-Radioactive Cell Proliferation Assay Kit® (Promega, USA) based on the reduction of a yellow tetrazole, 3-(4,5-Dimethylthiazol-2-yl)-2, 5-diphenyl tetrazolium bromide (MTT), to a purple formazan, a process that takes place in the mitochondria of viable cells (details are in ESI Sections SM12–SM14 ^†).[98,99]
As SH-SY5Y cells highly express ATP binding cassette subfamily B member 1 (ABCB1, MDR1, normalized expression, NX: 36.8%),[100] cell resistance were reversed using verapamil (10 μM), which was added with each hit, and incubated with cells for 72 hours for subsequent MTT viability assay.[101,102] Finally, MTT cell proliferation assay results were analysed using GraphPad Prism 8.0 (GraphPad Software, Inc). […] Measurements were repeated in triplicates.
• MTT Cell Proliferation Assay
Inhibitory effect of the hits on SH-SY5Y cells were evaluated by a colorimetric method of CellTiter Non-Radioactive Cell Proliferation Assay Kit® (Promega, USA), based on the reduction of a yellow tetrazole, 3-(4,5-Dimethylthiazol-2-yl)-2, 5-diphenyl tetrazolium bromide (MTT), to a purple formazan, a process that take place in the mitochondria of viable cells.
Briefly, the cells were seeded onto 96-well plates (Greiner, Germany) at a concentration of 2×10^4 cells/well and incubated for 24 hours through which cells are attached to the walls of the wells.
Subsequently, hits under concern were screened on 50 µM and 10 µM concentrations (100 μL/ well). Each concentration was added in triplicates, and every plate contained a control of cells in plain medium. The cells were then incubated at 37 °C for 72 hours. After incubation, the media were aspirated from the wells and replaced by fresh media (100 μL/ well), and 15 µl MTT dye solution. The plates were incubated at 37 °C for four hours, and then 50 μL of solublization/stop solution was added to each well. Optical density (OD) at 560 nm wavelength was recorded one hour later using a 96-well plate reader (GloMax, Promega).
• Reversal of SH-SY5Y resistance by verapamil
As SH-SY5Y cells are highly expressing ATP binding cassette subfamily B member 1 (ABCB1, MDR1) (Normalized expression, NX: 36.8%) 100, cell resistance were reversed using 10 µM concentration of verapamil added with each hit and incubated with cells for 72 hours for subsequent MTT viability assay 101,102.

LSD-1 = target: T1, LSD-1 (Homo sapiens, UniProt O60341); details: cited from earlier work; for Ki or IC50: potent inhibitors selected for docking, ref Table SM1
T1 construct: purchased Cayman Chemical-USA 700120

[2] = Tables SM1 and SM2, read-out: IC50

SMILES | Experimental % inhibition Without verapamil At 50 μM [1] [%] | IC50 (LSD-1; [2]) [nM] | also measured
N[C@@H]1C[C@H]1c1ccccc1 (racemic) [Tranylcypromine, reference compound] | 27.83 |  | 
N#Cc1ccc(N(CC(=O)N2CCC(N)CC2)Cc2ccccc2)cc1 [Cpd 220] |  |  | IC50 (LSD-1; Table SM1, read-out: IC50): 4100 nM
COc1ccc(CN(CC(=O)N2CCC3(CC2)CNC3)c2ccc(C#N)cc2)cc1F [Cpd 221] |  |  | IC50 (LSD-1; Table SM1, read-out: IC50): 83 nM
O=C(Nc1ccccc1)c1ccc2sccc2c1 [Cpd 227] |  | 100000 | 
Cn1c(C(=O)Nc2ccccc2)nc2sccc21 [Cpd 228] |  | 100000 | 
CCn1c(C(=O)Nc2cccc(COC)c2COc2ccc(OCC3CCNC3)cc2)cc2sccc21 (centres unmarked) [Cpd 229] |  | 6.7 | 
Cn1c(C(=O)Nc2cccc(COc3ccc(OC4CCNCC4)cc3)c2)cc2sccc21 [Cpd 230] |  | 162 | Ki or IC50 (LSD-1): ≤ 200 nM
COCc1ccccc1NC(=O)c1cc2sccc2n1C [Cpd 231] |  | 100000 | 
COCc1ccc(NC(=O)c2cc3sccc3n2C)cc1 [Cpd 232] |  | 100000 | 
COc1ccccc1NC(=O)c1cc2sccc2n1C [Cpd 233] |  | 100000 | 
COc1ccc(NC(=O)c2cc3sccc3n2C)cc1 [Cpd 234] |  | 100000 | 
CN1CCC(Oc2ccc(OCc3ccccc3NC(=O)c3cc4sccc4n3C)cc2)CC1 [Cpd 235] |  | 310 | 
Cn1c(C(=O)Nc2ccccc2COc2ccc(OC3CCNCC3)cc2)cc2sccc21 [Cpd 236] |  | 94 | 
Cn1c(C(=O)Nc2ccccc2CCc2ccc(OC3CCNCC3)cc2)cc2sccc21 [Cpd 237] |  | 177 | 
Cn1c(C(=O)Nc2ccccc2COc2ccc(N3CCNCC3)cc2)cc2sccc21 [Cpd 238] |  | 1500 | 
Cn1c(C(=O)Nc2ccccc2COc2ccc(OC3CCN(Cc4ccccc4)CC3)cc2)cc2sccc21 [Cpd 239] |  | 100000 | 
Cn1c(C(=O)Nc2ccccc2COc2ccc(OC3CCCNCC3)cc2)cc2sccc21 (centres unmarked) [Cpd 240] |  | 64 | 
Cn1c(C(=O)Nc2ccccc2COc2ccc(OC3CCC(N)CC3)cc2)cc2sccc21 (centres unmarked) [Cpd 241] |  | 340 | 
CNCCCOc1ccc(OCc2ccccc2NC(=O)c2cc3sccc3n2C)cc1 [Cpd 242] |  | 1300 | 
Cn1c(C(=O)Nc2ccccc2OCC2CCN(CC3CCNCC3)CC2)cc2sccc21 [Cpd 243] |  | 1700 | 
COCc1cccc(NC(=O)c2cc3sccc3n2C)c1COc1ccc(OCC2CCNC2)cc1 (centres unmarked) [Cpd 244] |  | 8.4 | 

SMILES | Experimental % inhibition Without verapamil At 50 μM [1] [%] | IC50 (LSD-1; [2]) [nM] | also measured
COCc1cccc(NC(=O)c2cc3sccc3n2C)c1COc1ccc(OC2CCCNCC2)cc1 (centres unmarked) [Cpd 245] |  | 29.2 | 
CCOCc1cccc(NC(=O)c2cc3sccc3n2C)c1COc1ccc(OCC2CCNC2)cc1 (centres unmarked) [Cpd 246] |  |  | IC50 (LSD-1; ref ESI Table SM2, read-out: IC50 of the complexed ligand in 5LHI): 7.8 nM
CCOCc1cccc(NC(=O)c2cc3sccc3n2C)c1COc1ccc(OC2CCNCC2)cc1 [Cpd 247] |  | 56 | 
Cn1c(C(=O)Nc2cccc(CN3CCOCC3)c2COc2ccc(OC3CCNCC3)cc2)cc2sccc21 [Cpd 248] |  | 65 | Ki or IC50 (LSD-1): ≤ 200 nM
c1ccc(-c2cc(OCC3CCNCC3)cnc2-c2ccccc2)cc1 [Cpd 250] |  |  | Ki (LSD-1; Table SM1): 50000 nM
C#Cc1ccc(-c2cc(OCC3CCNCC3)cnc2-c2ccc(C)cc2)cc1 [Cpd 259] |  |  | Ki (LSD-1; Table SM1): 50000 nM
Cc1ccc(-c2ncc(OCC3CCNCC3)cc2-c2ccc(C(=O)O)cc2)cc1 [Cpd 260] |  |  | Ki (LSD-1; Table SM1): 50000 nM
Cc1ccc(-c2ncc(OCC3CCNCC3)cc2-c2ccc(CO)cc2)cc1 [Cpd 261] |  |  | Ki (LSD-1; Table SM1): 50000 nM
Cc1ccc(-c2ncc(OCC3CCNCC3)cc2-c2ccc(C(=O)N3CCCCC3)cc2)cc1 [Cpd 262] |  |  | Ki (LSD-1; Table SM1): 50000 nM
Cc1ccc(-c2ncc(OCC3CCNCC3)cc2-c2ccc(C(=O)N3CCOCC3)cc2)cc1 [Cpd 263] |  |  | Ki (LSD-1; Table SM1): 50000 nM
Cc1ccc(-c2ncc(OCC3CCNCC3)cc2-c2ccc(C(=O)N3CCNCC3)cc2)cc1 [Cpd 264] |  |  | Ki (LSD-1; Table SM1): 50000 nM
CC(=NNC(=O)c1cccc(S(=O)(=O)N2CCOCC2)c1)c1cccc2ccccc12 [Cpd 272] |  |  | IC50 (LSD-1; Table SM1, read-out: IC50): 10000 nM
CC(=NNC(=O)c1cccc(S(=O)(=O)N2CCOCC2)c1)c1cc(Cl)ccc1O [Cpd 273] |  |  | IC50 (LSD-1; Table SM1, read-out: IC50): 13 nM
CC(=NNC(=O)c1cccc(S(=O)(=O)N2CCOCC2)c1)c1ccnc(Cl)c1 [Cpd 274] |  |  | IC50 (LSD-1; Table SM1, read-out: IC50): 3000 nM
CC(=NNC(=O)c1cccc(S(=O)(=O)N2CCOCC2)c1)c1cccnc1 [Cpd 275] |  |  | IC50 (LSD-1; Table SM1, read-out: IC50): 3000 nM
C#CCNCCCCC(NC(=O)c1ccccc1)C(=O)OC(C)(C)C (centres unmarked) [Cpd 277] |  |  | IC50 (LSD-1; Table SM1, read-out: IC50): 144000 nM
CC(=O)c1csc(NC(=O)c2ccccc2)n1 [Cpd 280] |  |  | IC50 (LSD-1; Table SM1, read-out: IC50): 188000 nM
CC(=O)c1csc(NC(=O)Nc2ccccc2)n1 [Cpd 281] |  |  | IC50 (LSD-1; Table SM1, read-out: IC50): 188000 nM
CCN(CC)CCOC(=O)c1ccc(NC(=O)OCCOC(=O)Nc2ccc(C(=O)OCCN(CC)CC)cc2)cc1 [Hit 282] | 6.16 |  | IC50 (LSD-1; Table SM2 co-crystallized ligand, read-out: IC50): 778 nM
O=C(NCCCCCCCCCCNC(=O)Nc1cccc(C2=NCC(O)CN2)c1)Nc1cccc(C2=NCC(O)CN2)c1 (centres unmarked) [Hit 286] |  |  | IC50 [1]: 7620 ± 970 nM
N=C(N)c1ccc(OCCCCCCOc2ccc(C(=N)N)cc2)cc1 [Hit 288] | 88.50 |  | IC50 [1]: 240 ± 30 nM

SMILES | Experimental % inhibition Without verapamil At 50 μM [1] [%] | IC50 (LSD-1; [2]) [nM] | also measured
CC1(C)N=C(N)N=C(N)N1c1ccc(OCC(=O)Nc2cccc(S(=O)(=O)F)c2)c(Cl)c1 [Hit 289] | 12.67 |  | 
CC1(C)N=C(N)N=C(N)N1c1ccc(CNC(=O)Nc2ccc(S(=O)(=O)F)cc2)cc1 [Hit 290] | 46.79 |  | 
CC1(C)N=C(N)N=C(N)N1c1ccc(OCCNC(=O)Nc2ccc(S(=O)(=O)F)cc2)c(Cl)c1 [Hit 291] | 49.67 |  | 
CC1(C)N=C(N)N=C(N)N1c1ccc(OCC(=O)Nc2ccc(S(=O)(=O)F)cc2Cl)c(Cl)c1 [Hit 292] | 27.42 |  | 
CCN(CC)CCOC(=O)c1ccc(NC(=O)OCC(C)OC(=O)Nc2ccc(C(=O)OCCN(CC)CC)cc2)cc1 (centres unmarked) [Hit 293] | 26.82 |  | 
CC1(C)N=C(N)N=C(N)N1c1ccc(OCC(=O)Nc2ccc(S(=O)(=O)F)cc2)c(Cl)c1 [Hit 294] | 28.17 |  | 
Cc1ccc(NC(=O)CCc2ccc(N3C(N)=NC(N)=NC3(C)C)cc2Cl)cc1S(=O)(=O)F [Hit 295] | 47.38 |  | 
Cc1cc(NC(=O)CCc2ccc(N3C(N)=NC(N)=NC3(C)C)cc2)ccc1S(=O)(=O)O [Hit 296] | 36.04 |  | 
CC1(C)N=C(N)N=C(N)N1c1ccc(OCc2ccc(C(=O)Nc3cccc(S(=O)(=O)F)c3)cc2)c(Cl)c1 [Hit 297] | 30.01 |  | 
Cc1ccc([C@@H](Cc2ccc(N3C(N)=NC(N)=NC3(C)C)cc2)C(=O)Nc2ccc(S(=O)(=O)F)cc2)cc1 [Hit 299] | 43.36 |  | 
Nc1nc(=O)n(CCCOc2cccc(NC(=O)c3cccc(S(=O)(=O)F)c3)c2)cc1-c1ccc(Cl)c(Cl)c1 [Hit 300] | 86.13 |  | 
COc1cccc(C(Cc2ccc(N3C(N)=NC(N)=NC3(C)C)cc2)C(=O)Nc2ccc(S(=O)(=O)F)cc2)c1 (centres unmarked) [Hit 301] | 37.58 |  | 
Cc1cc(S(=O)(=O)F)ccc1NC(=O)NCc1ccc(N2C(N)=NC(N)=NC2(C)C)cc1 [Hit 302] | 24.16 |  | 
CC1(C)N=C(N)N=C(N)N1c1ccc(C[C@H](CCc2ccccc2)C(=O)Nc2ccc(S(=O)(=O)F)cc2)cc1 [Hit 303] | 51.67 |  | 
COc1ccccc1[C@@H](Cc1ccc(N2C(N)=NC(N)=NC2(C)C)cc1)C(=O)Nc1ccc(S(=O)(=O)F)cc1 [Hit 305] | 55.91 |  | 
Cc1ccc(NC(=O)CCc2ccc(N3C(N)=NC(N)=NC3(C)C)cc2)cc1S(=O)(=O)F [Hit 306] | 34.55 |  | 
Cc1cc(=O)oc2cc(OC(=O)C(CCCCN)NC(=O)OCc3ccccc3)ccc12 (centres unmarked) [Hit 307] | 36.37 |  | 
CCN(CC)CCSCCCNc1cc(C)nc2c1ccc1c2ccc2c(NCCCSCCN(CC)CC)cc(C)nc21 [Hit 308] | 85.37 |  | 
N[C@@H](CSSC[C@H](N)C(=O)N[C@@H](Cc1ccc(O)cc1)C(=O)O)C(=O)N[C@@H](Cc1ccc(O)cc1)C(=O)O [Hit 309] (I: H-Cys-Tyr-OH / II: H-Cys-Tyr-OH; disulfide I:1-II:1) | 45.58 |  | 

— paper PMC9751883, “Discovery of new potent lysine specific histone demythelase-1 inhibitors (LSD-1) using structure based and ligand based molecular modelling and machine learning” (RSC Advances, 2022)
